Measurements taken from patent publication US9618524B2, “Method, composition, isolation and identification of a plaque particle and related biomarker” (Plaxgen Inc., priority 2012, dated 2017).

Legend:
Experiment in all cases: Mass spectroscopy proteomics, semi-quantitative binding affinity of serum proteins (plaqueproteome, Table 2)
Conditions in all cases: higher number = stronger affinity
[1] = target: T1, Abeta-42 plaque particles (Homo sapiens, UniProt P05067)
T1 construct: Abeta 1-42
How it was run: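 AD patient serum or plasma (50% in PBS) was incubated with Abeta-42 aggregates (30 μg) for 1 h at 37 °C, then stained with Thioflavin S for 30 min. Labeled particles were FACS-sorted, trypsin/Lys-C digested overnight and analyzed by MS/MS. Sequest searched human UniProt; Scaffold/Protein Prophet validated the identifications.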

[2] = system: High Density cholesterol (Chl Large) plaque particles; parameters: species or system human
How it was run: (§1)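 Atherosclerotic plasma/serum (50% in PBS) + 30 μg cholesterol aggregates, 1 hr 37° C; FACS gates split low- vs high-density particles. Acetone precipitation, urea/ProteaseMAX, acrylamide alkylation, overnight Trypsin/Lys C at 37° C; Sequest search, Scaffold/Protein Prophet validation.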

[3] = system: Low density cholesterol (Chl small) plaque particles; parameters: species or system human
How it was run: as §1

[4] = target: T2, alpha-synuclein plaque particles (Homo sapiens, UniProt P37840)
T2 construct: 140 amino acids polypeptide
How it was run: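 AD-subject plasma or serum (800 μL of 50%) mixed with 30 μg preformed alpha-synuclein aggregates for 1 h at 37 °C; Thioflavin S-positive particles isolated by flow sorting. After reduction, acrylamide alkylation and overnight tryptic digestion, serum proteins identified by MS/MS with Sequest and Scaffold.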

[5] = system: Tau plaque particles; parameters: species or system human
How it was run: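 Serum or plasma proteins captured on Thioflavin S-labelled Tau plaque particles (Tau-74, Tau-275 oligomers preformed in PBS at 37° C for 2 h; 1 h co-incubation at 37° C) were isolated by FACS sorting, then tryptically digested and identified by MS/MS (Sequest, human UniProt, strict trypsin).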

Substance | Semi-quantitative analysis of proteins binding to different plaque particles: Abeta-42 [1] | Semi-quantitative analysis of proteins binding to different plaque particles: Chl Large [2] | Semi-quantitative analysis of proteins binding to different plaque particles: Chl small [3] | Semi-quantitative analysis of proteins binding to different plaque particles: Synuclein [4] | Semi-quantitative analysis of proteins binding to different plaque particles: Tau [5]
Complement component C9 | 0 | 1 | 1 | 1 | 0
Complement factor B | 12 | 9 | 14 | 10 | 13
Filaggrin | 2 | 0 | 0 | 0 | 0
Filaggrin-2 | 4 | 0 | 0 | 0 | 0
Gelsolin | 2 | 8 | 9 | 6 | 9
Glyceraldehyde-3-phosphate dehydrogenase | 5 | 0 | 0 | 0 | 0
Haptoglobin | 23 | 27 | 29 | 22 | 24
Hemoglobin subunit alpha | 2 | 4 | 5 | 5 | 5
Hemoglobin subunit delta | 0 | 0 | 0 | 2 | 0
Hemopexin | 11 | 22 | 16 | 18 | 16
Histone H1.2 | 2 | 0 | 0 | 0 | 0
Hornerin | 2 | 0 | 0 | 0 | 1
Ig alpha-1 chain C region | 9 | 10 | 8 | 11 | 12
Ig gamma-1 chain C region | 12 | 41 | 51 | 44 | 27
Ig gamma-4 chain C region | 7 | 7 | 11 | 8 | 11
Ig heavy chain V-III region BRO | 7 | 5 | 6 | 4 | 5
Ig heavy chain V-III region BUT | 2 | 1 | 1 | 1 | 1
Ig heavy chain V-III region Gal | 2 | 0 | 1 | 2 | 4
Ig heavy chain V-III region JON | 0 | 0 | 1 | 1 | 1
Ig heavy chain V-III region NIE | 0 | 1 | 1 | 1 | 0
Ig heavy chain V-III region TEI | 5 | 4 | 5 | 3 | 4
Ig heavy chain V-III region TIL | 5 | 0 | 2 | 0 | 2
Ig heavy chain V-III region TUR | 4 | 2 | 3 | 1 | 0
Ig heavy chain V-III region VH26 | 7 | 2 | 3 | 1 | 3
Ig heavy chain V-III region WA | 4 | 1 | 2 | 0 | 1
Ig kappa chain C region | 11 | 17 | 21 | 15 | 15
Ig kappa chain V-I region AU | 2 | 1 | 1 | 0 | 0
